Results published in the supplement of paper PMC10307832.

What was measured:
Experiment in all cases: relative viability (nuclei count vs DMSO), 5 days (fraction); higher = more cells survive
A-427 = tested on: A-427
Procedure, shortened: (§1)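 Dosing by pin tool came one day after lung cancer cell lines were seeded in 1536-well plates, using either one drug or a fixed anchor-drug dose plus five library-drug doses (not always all listed) in √10 steps. After 5 days, nuclei were counted on 4× images. Relative viability is treated-well nuclei count divided by vehicle-well nuclei count, and values are medians of duplicate plates.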

HCC-15 = tested on: HCC-15
Procedure, shortened: as §1

HCC-78 = tested on: HCC-78
Procedure, shortened: as §1

HOP-62 = tested on: HOP-62
Procedure, shortened: as §1

LC-2-ad = tested on: LC-2-ad
Procedure, shortened: as §1

LOU-NH91 = tested on: LOU-NH91
Procedure, shortened: as §1

LXF-289 = tested on: LXF-289
Procedure, shortened: as §1

NCI-H1734 = tested on: NCI-H1734
Procedure, shortened: as §1

NCI-H1755 = tested on: NCI-H1755
Procedure, shortened: as §1

NCI-H1792 = tested on: NCI-H1792
Procedure, shortened: as §1

NCI-H1915 = tested on: NCI-H1915
Procedure, shortened: as §1

NCI-H1975 = tested on: NCI-H1975
Procedure, shortened: as §1

NCI-H2126 = tested on: NCI-H2126
Procedure, shortened: as §1

NCI-H2228 = tested on: NCI-H2228
Procedure, shortened: as §1

NCI-H2342 = tested on: NCI-H2342
Procedure, shortened: as §1

NCI-H2347 = tested on: NCI-H2347
Procedure, shortened: as §1

NCI-H358 = tested on: NCI-H358
Procedure, shortened: as §1

NCI-H460 = tested on: NCI-H460
Procedure, shortened: as §1

NCI-H647 = tested on: NCI-H647
Procedure, shortened: as §1

PC-3 [JPC-3] = tested on: PC-3 [JPC-3]
Procedure, shortened: as §1

RERF-LC-KJ = tested on: RERF-LC-KJ
Procedure, shortened: as §1

SK-LU-1 = tested on: SK-LU-1
Procedure, shortened: as §1

SW 1573 = tested on: SW 1573
Procedure, shortened: as §1

Structure (SMILES): O=C(O)c1ccc(-c2c[nH]c3ncc(-c4ccccc4)cc23)cc1C1CCCC1 + COc1cccc2cc(-c3nc([C@H]4CC[C@H](C(=O)O)CC4)n4ncnc(N)c34)[nH]c12 [OSI-027] (partner 0.5 µM)
- relative viability (A-427; first compound 0.04 µM): 0.48
- relative viability (A-427; first compound 0.1265 µM): 0.54
- relative viability (A-427; first compound 0.4 µM): 0.418
- relative viability (A-427; first compound 1.265 µM): 0.493
- relative viability (HCC-15; first compound 0.04 µM): 0.807
- relative viability (HCC-15; first compound 0.1265 µM): 0.813
- relative viability (HCC-15; first compound 0.4 µM): 0.633
- relative viability (HCC-15; first compound 1.265 µM): 0.399
- relative viability (HCC-78; first compound 0.1265 µM): 0.396
- relative viability (HCC-78; first compound 0.4 µM): 0.386
- relative viability (HCC-78; first compound 1.265 µM): 0.327
- relative viability (HOP-62; first compound 0.04 µM): 0.899
- relative viability (HOP-62; first compound 0.1265 µM): 0.859
- relative viability (HOP-62; first compound 0.4 µM): 0.707
- relative viability (HOP-62; first compound 1.265 µM): 0.805
- relative viability (LC-2-ad; first compound 0.04 µM): 0.805
- relative viability (LC-2-ad; first compound 0.1265 µM): 0.905
- relative viability (LC-2-ad; first compound 0.4 µM): 0.757
- relative viability (LC-2-ad; first compound 1.265 µM): 0.68
- relative viability (LOU-NH91; first compound 0.04 µM): 0.743
- relative viability (LOU-NH91; first compound 0.1265 µM): 0.824
- relative viability (LOU-NH91; first compound 0.4 µM): 0.733
- relative viability (LOU-NH91; first compound 1.265 µM): 0.73
- relative viability (LXF-289; first compound 0.04 µM): 0.848
- relative viability (LXF-289; first compound 0.1265 µM): 0.879
- relative viability (LXF-289; first compound 0.4 µM): 0.764
- relative viability (LXF-289; first compound 1.265 µM): 0.581
- relative viability (NCI-H1734; first compound 0.04 µM): 0.621
- relative viability (NCI-H1734; first compound 0.1265 µM): 0.701
- relative viability (NCI-H1734; first compound 0.4 µM): 0.549
- relative viability (NCI-H1734; first compound 1.265 µM): 0.512
- relative viability (NCI-H1755; first compound 0.04 µM): 0.748
- relative viability (NCI-H1755; first compound 0.1265 µM): 0.814
- relative viability (NCI-H1755; first compound 0.4 µM): 0.724
- relative viability (NCI-H1755; first compound 1.265 µM): 0.673
- relative viability (NCI-H1792; first compound 0.1265 µM): 0.908
- relative viability (NCI-H1792; first compound 0.4 µM): 0.698
- relative viability (NCI-H1792; first compound 1.265 µM): 0.696
- relative viability (NCI-H1915; first compound 0.04 µM): 0.629
- relative viability (NCI-H1915; first compound 0.1265 µM): 0.638
- relative viability (NCI-H1915; first compound 0.4 µM): 0.604
- relative viability (NCI-H1915; first compound 1.265 µM): 0.545
- relative viability (NCI-H1975; first compound 0.04 µM): 0.7
- relative viability (NCI-H1975; first compound 0.1265 µM): 0.871
- relative viability (NCI-H1975; first compound 0.4 µM): 0.648
- relative viability (NCI-H1975; first compound 1.265 µM): 0.629
- relative viability (NCI-H2126; first compound 0.04 µM): 0.749
- relative viability (NCI-H2126; first compound 0.1265 µM): 0.732
- relative viability (NCI-H2126; first compound 0.4 µM): 0.827
- relative viability (NCI-H2126; first compound 1.265 µM): 0.618
- relative viability (NCI-H2228; first compound 0.04 µM): 0.557
- relative viability (NCI-H2228; first compound 0.1265 µM): 0.568
- relative viability (NCI-H2228; first compound 0.4 µM): 0.446
- relative viability (NCI-H2228; first compound 1.265 µM): 0.355
- relative viability (NCI-H2342; first compound 0.04 µM): 0.489
- relative viability (NCI-H2342; first compound 0.1265 µM): 0.744
- relative viability (NCI-H2342; first compound 0.4 µM): 0.748
- relative viability (NCI-H2342; first compound 1.265 µM): 0.646
- relative viability (NCI-H2347; first compound 0.04 µM): 0.451
- relative viability (NCI-H2347; first compound 0.1265 µM): 0.392
- relative viability (NCI-H2347; first compound 0.4 µM): 0.425
- relative viability (NCI-H2347; first compound 1.265 µM): 0.367
- relative viability (NCI-H358; first compound 0.04 µM): 0.807
- relative viability (NCI-H358; first compound 0.1265 µM): 0.933
- relative viability (NCI-H358; first compound 0.4 µM): 0.727
- relative viability (NCI-H358; first compound 1.265 µM): 0.359
- relative viability (NCI-H460; first compound 0.04 µM): 0.645
- relative viability (NCI-H460; first compound 0.1265 µM): 0.75
- relative viability (NCI-H460; first compound 0.4 µM): 0.683
- relative viability (NCI-H460; first compound 1.265 µM): 0.511
- relative viability (NCI-H647; first compound 0.04 µM): 0.701
- relative viability (NCI-H647; first compound 0.1265 µM): 0.716
- relative viability (NCI-H647; first compound 0.4 µM): 0.669
- relative viability (NCI-H647; first compound 1.265 µM): 0.574
- relative viability (PC-3 [JPC-3]; first compound 0.04 µM): 0.784
- relative viability (PC-3 [JPC-3]; first compound 0.1265 µM): 0.792
- relative viability (PC-3 [JPC-3]; first compound 0.4 µM): 0.82
- relative viability (PC-3 [JPC-3]; first compound 1.265 µM): 0.655
- relative viability (RERF-LC-KJ; first compound 0.04 µM): 0.561
- relative viability (RERF-LC-KJ; first compound 0.1265 µM): 0.598
- relative viability (RERF-LC-KJ; first compound 0.4 µM): 0.582
- relative viability (RERF-LC-KJ; first compound 1.265 µM): 0.527
- relative viability (SK-LU-1; first compound 0.04 µM): 0.329
- relative viability (SK-LU-1; first compound 0.1265 µM): 0.391
- relative viability (SK-LU-1; first compound 0.4 µM): 0.324
- relative viability (SK-LU-1; first compound 1.265 µM): 0.274
- relative viability (SW 1573; first compound 0.04 µM): 0.685
- relative viability (SW 1573; first compound 0.1265 µM): 0.74
- relative viability (SW 1573; first compound 0.4 µM): 0.55
- relative viability (SW 1573; first compound 1.265 µM): 0.447
